According to patent publication US20230023092A1, “TREATMENT OF DEPRESSION AND OTHER VARIOUS DISORDERS WITH PSILOCYBIN” (COMPASS […], priority 2019, published 2023):

Columns and labels:
healthy subjects [1] = test: Social Value Orientation (SVO); type: in vivo, human
Description: In some embodiments, the Social Value Orientation (SVO) test is utilized to evaluate the safety and/or efficacy of psilocybin. The SVO Slider Measure has 6 primary items with 9 secondary (and optional) items. All of the items have the same general form. Each item is a resource allocation choice over a well-defined continuum of joint payoffs.
The Pictorial Empathy Test (PET), Reading the Mind in the Eyes Test (RMET), Scale of Social Responsibility (SSR), Social Value Orientation (SVO), and Toronto Empathy Questionnaire (TEQ) were performed. Table 20 summarizes the results of the mixed model for repeated measures (MMRM) analysis for each of the aforementioned social cognition panel scales measured on Day 7 and Day 84 after study drug administration.

healthy subjects [2] = test: CANTAB Paired Associates Learning (PALTEA); type: in vivo, human; settings: Day 28
Description: In some embodiments, the Paired Associates Learning (PAL) test is utilized to evaluate safety and/or efficacy of psilocybin. The PAL task is a measure of visuo-spatial memory in which study subjects are required to remember locations at which visual stimuli are located. […] One or more of them will contain a pattern. […] If the subject makes an error, the boxes are opened in sequence again to remind the subject of the locations of the patterns. Increased difficulty levels can be used to test high-functioning, healthy individuals. The primary metric for this test is the number of errors made. This test takes approximately 8 min to complete. […]
The following list of outcome measures are non-exhaustive. • a. The short-term change from Baseline (Day −1 [Visit 2]) to Day 7 (Visit 5) in cognitive measures of attention, spatial and working memory and executive function was measured by a composite score of the CANTAB Panel (Spatial Working Memory [SWM], Rapid Visual Information Processing [RVP], Paired Associates Learning [PAL]). • b. The short-term change from Baseline (Day −1 [Visit 2]) to Day 7 (Visit 5) in Social Cognition Panel scales (Pictorial Empathy Test [PET], Reading the Mind in the Eyes Test [RMET], Toronto Empathy Questionnaire [TEQ], Social Value Orientation [SVO], Scale of Social Responsibility [SSR]). • c. […]

[3] = Day 7, psilocybin 10 mg - placebo
[4] = Day 7, psilocybin 25 mg - 10 mg
[5] = Day 7, psilocybin 25 mg - placebo
[6] = Day 84, psilocybin 10 mg - placebo
[7] = Day 84, psilocybin 25 mg - 10 mg
[8] = Day 84, psilocybin 25 mg - placebo

CN(C)CCc1c[nH]c2cccc(OP(=O)(O)O)c12 [Psilocybin, psilocybin]
SVO angle change from baseline (LS mean) (healthy subjects [1]; Day 7, psilocybin 10 mg): 1.8
SVO type change from baseline (LS mean) (healthy subjects [1]; Day 7, psilocybin 10 mg): 0.1
SVO angle change from baseline, LS mean difference (healthy subjects [1]; [3]): 3.4
SVO type change from baseline, LS mean difference (healthy subjects [1]; [3]): 0.1
SVO angle change from baseline (LS mean) (healthy subjects [1]; Day 7, psilocybin 25 mg): 0.5
SVO type change from baseline (LS mean) (healthy subjects [1]; Day 7, psilocybin 25 mg): 0.1
SVO angle change from baseline, LS mean difference (healthy subjects [1]; [4]): −1.3
SVO type change from baseline, LS mean difference (healthy subjects [1]; [4]): −0.0
SVO angle change from baseline, LS mean difference (healthy subjects [1]; [5]): 2.1
SVO type change from baseline, LS mean difference (healthy subjects [1]; [5]): 0.1
SVO angle change from baseline (LS mean) (healthy subjects [1]; Day 84, psilocybin 10 mg): 0.1
SVO type change from baseline (LS mean) (healthy subjects [1]; Day 84, psilocybin 10 mg): 0.1
SVO angle change from baseline, LS mean difference (healthy subjects [1]; [6]): 3.4
SVO type change from baseline, LS mean difference (healthy subjects [1]; [6]): 0.1
SVO angle change from baseline (LS mean) (healthy subjects [1]; Day 84, psilocybin 25 mg): −0.9
SVO type change from baseline (LS mean) (healthy subjects [1]; Day 84, psilocybin 25 mg): 0.0
SVO angle change from baseline, LS mean difference (healthy subjects [1]; [7]): −1.0
SVO type change from baseline, LS mean difference (healthy subjects [1]; [7]): −0.0
SVO angle change from baseline, LS mean difference (healthy subjects [1]; [8]): 2.4
SVO type change from baseline, LS mean difference (healthy subjects [1]; [8]): 0.1
PALTEA improvement compared to placebo (LS mean difference from placebo) (healthy subjects [2]; 10 mg): ~2 point
PALTEA improvement compared to placebo (LS mean difference from placebo) (healthy subjects [2]; 25 mg): ~2 point
